Data published in the NIST ThermoML archive (doi:10.1021/acs.jced.9b00074).

Assay: xn = mol fraction of the nth substance listed
Settings: 100 kPa, Liquid; for viscosity: Falling or rolling sphere viscometry; for mass density: Vibrating tube method

CC12CC3CC(C1)CC(C)(C3)C2 [1,3-dimethyladamantane] + C1C[C@@H]2[C@H]3CC[C@H](C3)[C@@H]2C1
Settings | mass density [kg/m3] | viscosity [mPa·s]
293.15 K, x2 = 0.0998 | 905.2 | 3.715
293.15 K, x2 = 0.2023 | 908.96 | 3.67
293.15 K, x2 = 0.2984 | 912.36 | 3.623
293.15 K, x2 = 0.3996 | 915.9 | 3.555
293.15 K, x2 = 0.4998 | 919.37 | 3.474
293.15 K, x2 = 0.5973 | 922.65 | 3.388
293.15 K, x2 = 0.7005 | 926.17 | 3.293
293.15 K, x2 = 0.8026 | 929.43 | 3.2
293.15 K, x2 = 0.9 | 932.64 | 3.114
298.15 K, x2 = 0.0998 | 901.59 | 3.316
298.15 K, x2 = 0.2023 | 905.3 | 3.277
298.15 K, x2 = 0.2984 | 908.68 | 3.238
298.15 K, x2 = 0.3996 | 912.18 | 3.181
298.15 K, x2 = 0.4998 | 915.61 | 3.116
298.15 K, x2 = 0.5973 | 918.86 | 3.045
298.15 K, x2 = 0.7005 | 922.34 | 2.965
298.15 K, x2 = 0.8026 | 925.59 | 2.885
298.15 K, x2 = 0.9 | 928.76 | 2.814
303.15 K, x2 = 0.0998 | 897.97 | 2.977
303.15 K, x2 = 0.2023 | 901.64 | 2.947
303.15 K, x2 = 0.2984 | 904.99 | 2.915
303.15 K, x2 = 0.3996 | 908.45 | 2.867
303.15 K, x2 = 0.4998 | 911.85 | 2.81
303.15 K, x2 = 0.5973 | 915.06 | 2.75
303.15 K, x2 = 0.7005 | 918.51 | 2.68
303.15 K, x2 = 0.8026 | 921.77 | 2.618
303.15 K, x2 = 0.9 | 924.88 | 2.555
308.15 K, x2 = 0.0998 | 894.36 | 2.687
308.15 K, x2 = 0.2023 | 897.98 | 2.666
308.15 K, x2 = 0.2984 | 901.29 | 2.637
308.15 K, x2 = 0.3996 | 904.71 | 2.601
308.15 K, x2 = 0.4998 | 908.08 | 2.547
308.15 K, x2 = 0.5973 | 911.26 | 2.495
308.15 K, x2 = 0.7005 | 914.67 | 2.438
308.15 K, x2 = 0.8026 | 917.91 | 2.385
308.15 K, x2 = 0.9 | 921 | 2.332
313.15 K, x2 = 0.0998 | 890.74 | 2.44
313.15 K, x2 = 0.2023 | 894.32 | 2.422
313.15 K, x2 = 0.2984 | 897.59 | 2.394
313.15 K, x2 = 0.3996 | 900.98 | 2.363
313.15 K, x2 = 0.4998 | 904.31 | 2.319
313.15 K, x2 = 0.5973 | 907.45 | 2.275
313.15 K, x2 = 0.7005 | 910.84 | 2.227
313.15 K, x2 = 0.8026 | 914.04 | 2.179
313.15 K, x2 = 0.9 | 917.12 | 2.136
318.15 K, x2 = 0.0998 | 887.12 | 2.222
318.15 K, x2 = 0.2023 | 890.65 | 2.209
318.15 K, x2 = 0.2984 | 893.89 | 2.185
318.15 K, x2 = 0.3996 | 897.24 | 2.157
318.15 K, x2 = 0.4998 | 900.53 | 2.121
318.15 K, x2 = 0.5973 | 903.65 | 2.081
318.15 K, x2 = 0.7005 | 906.99 | 2.042
318.15 K, x2 = 0.8026 | 910.17 | 2.002
318.15 K, x2 = 0.9 | 913.23 | 1.964
323.15 K, x2 = 0.0998 | 883.5 | 2.032
323.15 K, x2 = 0.2023 | 886.99 | 2.02
323.15 K, x2 = 0.2984 | 890.18 | 2.001
323.15 K, x2 = 0.3996 | 893.49 | 1.978
323.15 K, x2 = 0.4998 | 896.75 | 1.946
323.15 K, x2 = 0.5973 | 899.83 | 1.915
323.15 K, x2 = 0.7005 | 903.15 | 1.879
323.15 K, x2 = 0.8026 | 906.3 | 1.844
323.15 K, x2 = 0.9 | 909.33 | 1.812
328.15 K, x2 = 0.0998 | 879.87 | 1.867
328.15 K, x2 = 0.2023 | 883.31 | 1.857
328.15 K, x2 = 0.2984 | 886.47 | 1.839
328.15 K, x2 = 0.3996 | 889.74 | 1.819
328.15 K, x2 = 0.4998 | 892.97 | 1.794
328.15 K, x2 = 0.5973 | 896.02 | 1.764
328.15 K, x2 = 0.7005 | 899.3 | 1.734
328.15 K, x2 = 0.8026 | 902.43 | 1.704
328.15 K, x2 = 0.9 | 905.43 | 1.677
333.15 K, x2 = 0.0998 | 876.23 | 1.719
333.15 K, x2 = 0.2023 | 879.65 | 1.714
333.15 K, x2 = 0.2984 | 882.76 | 1.696
333.15 K, x2 = 0.3996 | 885.99 | 1.679
333.15 K, x2 = 0.4998 | 889.18 | 1.657
333.15 K, x2 = 0.5973 | 892.2 | 1.631
333.15 K, x2 = 0.7005 | 895.45 | 1.605
333.15 K, x2 = 0.8026 | 898.54 | 1.58
333.15 K, x2 = 0.9 | 901.52 | 1.557
